Tests used:
[1] = system: TβRII; assay: TβRII protein in human hair germinal matrix cells deficient in endogenous HA (4-MU); format: cell-based; conditions: 4-MU-treated cells; HAPLN1 25 ng/mL; TGF-β2 2 ng/mL
Protocol: (§1) 4-MU (4-methylumbelliferone) is an inhibitor of HA-producing hyaluronan synthase 2 (HAS2), which produces HA. In order to confirm the effect of HA produced in cells, HA production in cells was inhibited using 4-MU.
(§2) The human hair germinal matrix cells, in which the endogenous HA was inhibited by treating 4-MU, were dispensed into a poly-D-lysine 6-well plate at a concentration of 5.0×10^4 per well and cultured for 24 hours. After 24 hours, the medium was removed and replaced with a new serum-free medium. HAPLN1 was treated with 25 ng/mL, and after 1 hour, TGF-β2 (2 ng/mL) was treated. After 23 hours, cells were collected, a lysis buffer (25 mM Tris-HCl, 1 mM EDTA, 0.1% Triton-X100, phosphatase inhibitor, and protease inhibitor) was added, and all the cells were broken through sonication. HAS2 and TβRII in the sample were measured using Western blotting. The optical density of each of HAS2 and TβRII was compared to that of GAPDH using a densitometer.

[2] = system: HAS2; assay: HAS2 protein in human hair germinal matrix cells deficient in endogenous HA (4-MU); format: cell-based; conditions: 4-MU-treated cells; HAPLN1 25 ng/mL; TGF-β2 2 ng/mL
Protocol: as §1, §2

## Cc1cc(=O)oc2cc(O)ccc12 [4-MU, 4-methylumbelliferone, reference compound]
[1]
  TβRII level: decreased
[2]
  HAS2 level: decreased

— patent US20220202899A1, “COMPOSITION FOR PREVENTION OR TREATMENT OF HAIR LOSS INCLUDING HAPLN1” (HAPLNSCIENCE INC., priority 2019, published 2022)
